Measurements from ChEMBL document CHEMBL5126609, “Design, Synthesis, and Pharmacological Evaluation of Benzimidazolo-thiazoles as Potent CXCR3 Antagonists with Therapeutic Potential in Autoimmune Diseases: Discovery of ACT-672125” (J Med Chem, 2022).
Converted amounts (≈) assume the structure as drawn.

What was measured:
[1] = target: T1, C-X-C chemokine receptor type 3 (Homo sapiens, UniProt P49682); assay: Antagonist activity at human recombinant CXCR3 in human venous blood assessed as receptor internalization measured for 30 mins in presence of CXCL10 by flow cytometric analysis
T1 sequence (P49682 whole entry): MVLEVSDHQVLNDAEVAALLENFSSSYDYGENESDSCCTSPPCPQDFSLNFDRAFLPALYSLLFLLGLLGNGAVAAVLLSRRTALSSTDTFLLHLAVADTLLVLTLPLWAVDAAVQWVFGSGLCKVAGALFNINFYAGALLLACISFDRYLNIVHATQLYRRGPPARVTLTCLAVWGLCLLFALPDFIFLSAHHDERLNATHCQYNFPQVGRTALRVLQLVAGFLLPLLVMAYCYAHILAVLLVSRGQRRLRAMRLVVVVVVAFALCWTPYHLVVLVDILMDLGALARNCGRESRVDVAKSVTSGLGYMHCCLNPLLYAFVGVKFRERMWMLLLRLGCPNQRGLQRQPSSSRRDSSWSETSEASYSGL

in vitro [2] = settings: human, microsomes
[3] = Unbound fraction in mouse plasma by equilibrium based LC-MS/MS analysis
[4] = Lipophilicity, log D of the compound at pH 7.4; settings: buffer
hERG (KCNH2) = hERG (KCNH2) (Homo sapiens, UniProt Q12809); assay: Inhibition of hERG expressed in CHO cells at 3 uM at -80 mV holding potential assessed as current block incubated for 3 mins by Qpatch clamp method relative to control
in vivo [5] = settings: Balb/c, mouse, po, 10 mg/kg
in vitro [6] = settings: mouse, microsomes
in vivo [7] = settings: Balb/c, mouse, po, 10 mg/kg; remark: listed apart in the source
in vivo [8] = settings: Balb/c, mouse, po, 10 mg/kg; remark: listed apart in the source
[9] = target: T1, C-X-C chemokine receptor type 3; assay: Antagonist activity at human recombinant CXCR3 expressed in CHO-K1 cells measured after 10 mins in presence of CXCL10 by FLIPR analysis
[10] = Solubility of the compound in FeSSIF; settings: simulated gi fluid
[11] = Apparent permeability across apical to basolateral side in MDCK1 cells by LC-MS/MS analysis; settings: dog, MDCK
[12] = Clearance in Wistar rat at 2 mg/kg, po; settings: in vivo
in vivo [13] = settings: Wistar, rat, po, 2 mg/kg
in vitro [14] = settings: rat, microsomes
[15] = Unbound fraction in rat plasma by equilibrium based LC-MS/MS analysis
[16] = Unbound fraction in human plasma by equilibrium based LC-MS/MS analysis
[17] = Half life in Wistar rat at 0.5 mg/kg, iv; settings: in vivo
[18] = Solubility of the compound in FaSSIF; settings: simulated gi fluid
in vivo [19] = settings: Wistar, rat, po, 2 mg/kg; remark: listed apart in the source
in vivo [20] = settings: Wistar, rat, po, 2 mg/kg; remark: listed apart in the source

Chain of hERG (KCNH2) (Q12809 whole entry): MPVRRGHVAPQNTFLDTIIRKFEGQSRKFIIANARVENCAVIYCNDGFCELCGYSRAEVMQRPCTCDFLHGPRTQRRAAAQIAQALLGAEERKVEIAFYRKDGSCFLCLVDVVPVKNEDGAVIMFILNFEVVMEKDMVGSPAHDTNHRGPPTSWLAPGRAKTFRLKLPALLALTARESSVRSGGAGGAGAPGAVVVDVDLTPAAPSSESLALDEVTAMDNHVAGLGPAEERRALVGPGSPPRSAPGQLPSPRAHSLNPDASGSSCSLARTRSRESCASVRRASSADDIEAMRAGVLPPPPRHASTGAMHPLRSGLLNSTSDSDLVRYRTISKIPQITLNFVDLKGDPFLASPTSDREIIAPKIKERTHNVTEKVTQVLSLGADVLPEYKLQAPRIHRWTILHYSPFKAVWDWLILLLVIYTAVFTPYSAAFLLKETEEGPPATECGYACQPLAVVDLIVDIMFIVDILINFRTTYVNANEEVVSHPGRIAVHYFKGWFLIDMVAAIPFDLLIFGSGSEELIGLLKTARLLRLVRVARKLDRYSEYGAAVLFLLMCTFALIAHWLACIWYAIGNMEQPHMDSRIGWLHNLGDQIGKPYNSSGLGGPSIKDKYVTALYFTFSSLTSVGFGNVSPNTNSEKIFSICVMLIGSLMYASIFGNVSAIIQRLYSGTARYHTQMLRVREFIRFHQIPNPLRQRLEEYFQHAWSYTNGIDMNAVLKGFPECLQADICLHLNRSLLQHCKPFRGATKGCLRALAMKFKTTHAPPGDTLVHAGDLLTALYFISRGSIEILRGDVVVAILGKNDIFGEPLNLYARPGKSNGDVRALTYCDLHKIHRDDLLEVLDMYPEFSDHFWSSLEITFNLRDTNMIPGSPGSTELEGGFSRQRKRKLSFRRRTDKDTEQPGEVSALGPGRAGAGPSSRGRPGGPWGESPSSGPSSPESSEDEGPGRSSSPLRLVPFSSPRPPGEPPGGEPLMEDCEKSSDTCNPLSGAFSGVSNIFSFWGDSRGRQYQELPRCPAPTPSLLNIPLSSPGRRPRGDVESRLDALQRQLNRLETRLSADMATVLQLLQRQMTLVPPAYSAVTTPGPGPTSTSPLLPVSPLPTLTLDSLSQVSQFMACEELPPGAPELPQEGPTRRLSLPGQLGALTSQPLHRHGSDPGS

SMILES | IC50 [1] [nM] | microsomal CLint at 0.25 h, 1 µM (in vitro [2]) [µL/min/mg] | logD [4] | inhibition at 0.05 h, 3 µM (hERG (KCNH2)) [%] | IC50 [9] [nM] | solubility [10] [µg/mL] | further results
Cc1nc(C)n(CC(=O)N2CCN(c3sc(C(F)(F)F)nc3-c3nc4c(F)cccc4[nH]3)C[C@H]2C)n1 | 321 | 24 | 3.6 | 45 | 3.1 | 750 (≈ 1440 µM) | fraction unbound [3]: 0.014; Cmax (in vivo [5]): 7010 ng/mL; microsomal CLint at 0.25 h, 1 µM (in vitro [6]): 25 µL/min/mg; AUC (in vivo [7]): 41500 ng·h/mL; Tmax (in vivo [8]): 15 min; Papp A→B [11]: 8.5 ×10⁻⁶ cm/s
C[C@@H]1CN(c2sc(C(F)(F)F)nc2-c2nc3ccccc3n2C)CCN1C(=O)Cn1cccn1 | 3560 |  |  | 46 | 110 |  | 
Cc1nnc(CC(=O)N2CCN(c3sc(C(F)(F)F)nc3-c3nc4ccccc4[nH]3)C[C@H]2C)o1 | 2470 |  |  | 36 | 31 |  | 
Cc1nc(C)n(CC(=O)N2CCN(c3sc(C(F)(F)F)nc3-c3nc4c(C(F)(F)F)cccc4[nH]3)C[C@H]2C)n1 | 747 |  |  | 52 | 6 |  | 
Cc1nc(C)n(CC(=O)N2CCN(c3sc(C(F)(F)F)nc3-c3nc4ccccc4[nH]3)C[C@H]2C)n1 | 237 | 30 | 3.3 | 45 | 3.2 | > 850 | CL/F [12]: 6 mL/min/kg; fraction unbound [3]: 0.041; Cmax (in vivo [5]): 5090 ng/mL; Tmax (in vivo [13]): 30 min; microsomal CLint at 0.25 h, 1 µM (in vitro [14]): 39 µL/min/mg; fraction unbound [15]: 0.074; fraction unbound [16]: 0.113; half-life [17]: 180 min; microsomal CLint at 0.25 h, 1 µM (in vitro [6]): 21 µL/min/mg; AUC (in vivo [7]): 10800 ng·h/mL; Tmax (in vivo [8]): 30 min; solubility [18]: 440 µg/mL (≈ 872 µM); bioavailability (in vivo [19]): 0.5%; Papp A→B [11]: 12 ×10⁻⁶ cm/s; AUC (in vivo [20]): 2970 ng·h/mL
Cc1nn(CC(=O)N2CCN(c3sc(C(F)(F)F)nc3-c3nc4ccccc4[nH]3)C[C@H]2C)cc1CN(C)C | 330 | 37 | 2.4 | 38 | 2.7 | 645 (≈ 1180 µM) | fraction unbound [3]: 0.053; Cmax (in vivo [5]): 258 ng/mL; fraction unbound [16]: 0.143; microsomal CLint at 0.25 h, 1 µM (in vitro [6]): 29 µL/min/mg; AUC (in vivo [7]): 833 ng·h/mL; Tmax (in vivo [8]): 120 min; solubility [18]: 649 µg/mL (≈ 1190 µM)
Cc1nc(C)n(CC(=O)N2CCN(c3sc(C(F)(F)F)nc3-c3nc4ccc(C5CCN(C)CC5)cc4[nH]3)C[C@H]2C)n1 |  | 27 | 3.4 | -5 |  | > 1020 | Cmax (in vivo [5]): 30.5 ng/mL; AUC (in vivo [7]): 54.6 ng·h/mL; Tmax (in vivo [8]): 180 min
C[C@@H]1CN(c2sc(C(F)(F)F)nc2-c2nc3ccc(N4CCN(C)CC4)cc3[nH]2)CCN1C(=O)Cn1cccn1 | 122 |  |  | 0 | 1.6 |  | 
C[C@@H]1CN(c2sc(C(F)(F)F)nc2-c2nc3ccccc3[nH]2)CCN1C(=O)Cn1cc(Cl)cn1 | 251 |  |  | 70 | 1.7 |  | 
C[C@@H]1CN(c2sc(C(F)(F)F)nc2-c2nc3ccccc3[nH]2)CCN1C(=O)Cn1cc(C2CCN(C)CC2)cn1 | 1690 |  |  | 74 | 15 |  | 
C[C@@H]1CN(c2sc(C(F)(F)F)nc2-c2nc3ccccc3[nH]2)CCN1C(=O)Cc1cccc2cccnc12 | 502 |  |  | 78 | 23 |  | 
Cc1nc(C)n(CC(=O)N2CCN(c3sc(C(F)(F)F)nc3-c3nc4ccc(-n5cncn5)cc4[nH]3)C[C@H]2C)n1 | 1140 |  |  | 3 | 5.8 |  | 
COCCn1c(-c2nc(C(F)(F)F)sc2N2CCN(C(=O)Cn3cccn3)[C@H](C)C2)nc2ccccc21 | 6890 |  |  | 2 | 150 |  | 
C[C@@H]1CN(c2sc(C(F)(F)F)nc2-c2nc3ccc(CO)cc3[nH]2)CCN1C(=O)Cn1cnc2cccnc21 |  | 131 |  | 12 | 4.6 |  | 
C[C@@H]1CN(c2sc(C(F)(F)F)nc2-c2nc3ccccc3[nH]2)CCN1C(=O)Cn1cnc2c1CCN(C)C2 | 135 | 21 | 3 | 33 | 3.6 | > 920 | fraction unbound [16]: 0.15; solubility [18]: > 920 µg/mL
C[C@@H]1CN(c2sc(C(F)(F)F)nc2-c2nc3cc(OCCO)ccc3[nH]2)CCN1C(=O)Cn1cnc2cccnc21 | 99.1 | 43 | 2.4 | 25 | 2.1 | 549 (≈ 936 µM) | fraction unbound [3]: 0.03; Cmax (in vivo [5]): 1760 ng/mL; microsomal CLint at 0.25 h, 1 µM (in vitro [6]): 31 µL/min/mg; AUC (in vivo [7]): 519 ng·h/mL; Tmax (in vivo [8]): 15 min
Cc1ccc(CC(=O)N2CCN(c3sc(C(F)(F)F)nc3-c3nc4ccccc4[nH]3)C[C@H]2C)cn1 | 805 |  |  | 73 | 6.1 |  | 
